From PMC12195982, “Design, Synthesis, and In Vitro Evaluation of 4-(Arylchalcogenyl)methyl)-1H-1,2,3-triazol-1-yl-menadione: Exploring Their Potential Against Tuberculosis” (Pharmaceuticals, 2025)
Values after ≈ are worked out from the molar mass of the structure shown.

Tested on: INH- and RIF-resistant Mtb (strain T113/09, KatG and rpoB mutation)
Format: cell-based, Mycobacterium tuberculosis

Structure (SMILES) | MIC INH/RIFR-Mtb [mg/L] | fold more potent than INH
CC1=C(C(c2ccc(C)cc2)n2cc(C[Se]c3ccccc3)nn2)C(=O)c2ccccc2C1=O (stereo not shown) [Compound 9h, 2-methyl-3-((4-((phenylselanyl)methyl)-1H-1,2,3-triazolyl)(p-methylphenyl)methyl) naphthalene-1,4-dione] | ≤3 | at least 7 fold
CC1=C(Cn2cc(C[Se]c3cccc(C(F)(F)F)c3)nn2)C(=O)c2ccccc2C1=O [Compound 9c] | >99 | –
CC1=C(Cn2cc(C[Se]c3ccccc3)nn2)C(=O)c2ccccc2C1=O [Compound 9a, 2-methyl-3-((4-((phenylselanyl)methyl)-1H-1,2,3-triazolyl)methyl)naphthalene-1,4-dione] | 3 (≈ 7.1 µM) | at least 7 fold
NNC(=O)c1ccncc1 [INH, isoniazid, reference compound] | 8 (≈ 58.3 µM) | –
CC1=C(Cn2cc(C[Se]c3ccc(Cl)cc3)nn2)C(=O)c2ccccc2C1=O [Compound 9b, 2-((4-(((4-chlorophenyl)selanyl)methyl)-1H-1,2,3-triazolyl)methyl)-3-methylnaphthalene-1,4-dione] | ≤3 | at least 7 fold
CC1=C(C(c2ccccc2)n2cc(C[Se]c3ccccc3)nn2)C(=O)c2ccccc2C1=O (stereo not shown) [Compound 9g, 2-methyl-3-(phenyl(4-((phenylselanyl)methyl)-1H-1,2,3-triazolyl)methyl)naphthalene-1,4-dione] | ≤3 | at least 7 fold
